Results: patent publication US5686448A (priority 1995, dated 1997)
“And” between values parts separate entries of the source, which are not always exact repeats. Equal values may be shown once. Read-outs that look alike come from different tables or passages of the source.

Key:
[1] = test system: Flow 1000 cells (foreskin cells); conditions: 25 mg/ml, 48 hours
Experimental: Healthy confluent monolayer cell cultures were overlaid with 1 ml of the drug and incubated for 48 hours at 37° C. and then stained. Cell cultures with maintenance media were used as controls.

[2] = test system: cell-free HSV virus; conditions: 20 mg/ml
Experimental: Both mixtures were maintained at 4° C. for 30 minutes, 60 minutes, or 90 minutes. 0.3 ml of the solutions were plated onto susceptible cell cultures and incubated at 37° C. for 36 hours. All cultures were stained and compared to the virus control.

[3] = test system: HSV-2; conditions: for Percent Reduction of lesions / # of lesions: TEAC ointment from 12-16 hours p.i.
Experimental: Female guinea pigs (obtained from Charles River, Inc.) weighing approximately 200 g were used as a model for HSV-2 skin lesions. The animals were anesthetized with 0.15 ml of Ketamine-Rompum mixture. The animals were first shaved on their back with a hair clipper and then treated with a depilatory cream (Nair). The denuded area was washed well and then dried. A tuberculin tyne was washed with ethanol and air dried.
Two methods were tried for infecting the animals with the virus. In one, a drop of HSV-2 suspension was placed on the skin and the skin was punctured with the tyne. In the second method, the tyne was dipped in the virus suspension before puncturing the skin.
In the first experiment, each of 3 guinea pigs was infected on three areas of their backs. At 3 days post infection, treatment was begun on one side of each animal, leaving the other side untreated as a control.
The animals were examined daily for vesicles (V), crust (C) and for erythema (R) alone.
In the next experiment 6 guinea pigs were infected in the same manner as the initial 3 guinea pigs. Treatment was begun 12-16 hours post infection. […] Lesions showing an erythematous base with either a blister or a crust on top were considered to HSV specific. […] Both the control animals and treated animals were carefully read in the same manner.

[4] = Excerpt: Patient B is a person diagnosed as having both HSV type 1 (expressed as oral lesions) and HSV type 2 (expressed as penile lesions).
Patient E is a person who weighed 93 kg when they reported for treatment.
Patient K is a person who weighed 59 kg. when they reported for treatment. They were diagnosed as having HSV type 2. They described a history of lesions on the buttocks and genital region with attacks occurring monthly in cooler weather and weekly in warmer weather.

[5] = test system: WISH cells
[6] = test system: HSV type 2;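 also: individual clinical case observations in adult human patients with a history of recurrent HSV type 2 lesions, outcomes described qualitatively as reported symptoms and lesion episodes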
[7] = test system: HSV types 1 and 2 (herpes simplex)
[8] = Patient A, second infusion 3.2 cc
[9] = Patient J, following day, 1% TEAC ointment topical
[10] = Patient J, two days after infusion 3.6 cc
[11] = Patient K, after second infusion
[12] = Patient B, fourth treatment 4.8 cc
[13] = Patient B, third treatment 4.5 cc
[14] = Patient I, three months after second infusion

Q: For `CC[N+](CC)(CC)CC.[Cl-]` [TEAC, tetraethylammonium chloride], which toxicity [1] is on record?
A: toxicity

Q: And the “inactivation of cell-free virus” value [2]?
A: does not inactivate the virus

Q: And the “Percent Reduction of lesions” value ([3]; day 3 P.I.)?
A: 21%

Q: What about the “# of lesions” value ([3]; day 3 P.I., control 19) of the same compound?
A: 15

Q: And the “Percent Reduction of lesions” value ([3]; day 4 P.I.)?
A: 27.5%

Q: And the “# of lesions” value ([3]; day 4 P.I., control 40)?
A: 29

Q: And the “Percent Reduction of lesions” value ([3]; day 5 P.I.)?
A: 58.5%

Q: And the “# of lesions” value ([3]; day 5 P.I., control 41)?
A: 17

Q: And the “Percent Reduction of lesions” value ([3]; day 6 P.I.)?
A: 58.3%

Q: What about the “# of lesions” value ([3]; day 6 P.I., control 36) of the same compound?
A: 15

Q: What about the lesion appearance ([3]; first experiment, 4 times daily from 3 days p.i.) of the same compound?
A: did not crust but appeared to be faded by 6 days post infection

Q: What about the dermatitis ([3]; first experiment, day 4 after treatment, probably due to TEAC or its vehicle or both) of the same compound?
A: a rash appeared

Q: And the “number and size of lesions” value ([3]; given 12-16 hours p.i.)?
A: significant reduction in the number of lesions, but also in their size

Q: What about the “rupture and crusting of lesions” value ([3]; given 12-16 hours p.i.) of the same compound?
A: neither ruptured nor crusted

Q: And the vesicle formation ([3]; given 12-16 hours p.i.)?
A: less vesicles formed

Q: What about the vesicles ([3]; given 3 days p.i.) of the same compound?
A: reduced in elevation and eventually resolved

Q: What about the “number and appearance of lesions vs control” value ([3]; treatment from 12-16 hours p.i.) of the same compound?
A: marked difference between the two groups

Q: What about the side effects ([4]; Patient A, first infusion 2.8 cc) of the same compound?
A: some blurred vision and slight dizziness on rising to the seated position

Q: What about the side effects [4, 8] of the same compound?
A: some blurred vision

Q: What about the drug related effects ([4]; Patient B, 3.7 cc (5 mg/kg)) of the same compound?
A: blurred vision, dryness of the mouth, and unsteady gait

Q: And the “time to cessation of drug related effects after infusion” value ([4]; Patient B, 3.7 cc (5 mg/kg))?
A: 10 to 15 min

Q: What about the side effects ([4]; Patient C, 3.85 cc (5 mg/kg)) of the same compound?
A: slightly blurred vision

Q: What about the side effects ([4]; Patient D, 2.8 cc (5 mg/kg)) of the same compound?
A: dry mouth and transient blurred vision

Q: What about the side effects ([4]; Patient E, 4.8 cc (5 mg/kg)) of the same compound?
A: slightly blurred vision

Q: And the reddening of lip ([4]; Patient G, 4.3 cc)?
A: some reddening of the lip

Q: What about the side effects ([4]; Patient J, 3.6 cc (5.5 mg/kg)) of the same compound?
A: some blurred vision

Q: And the side effects ([4]; Patient K, first infusion 3.1 cc)?
A: some blurred vision

Q: And the side effects ([4]; Patient K, second infusion 3.4 cc)?
A: blurred vision

Q: And the “duration of feeling badly following treatment” value ([4]; Patient L, 2.9 cc (5.5 mg/kg))?
A: 24 to 36 h

Q: What about the side effects ([4]; Patient L, 2.9 cc (5.5 mg/kg)) of the same compound?
A: some blurred vision

Q: And the “change in morphology of cells” value ([5]; 5, 2.5, 1.25 mg/culture overnight)?
A: No change in the morphology of the cells

Q: And the “growth or general appearance vs untreated” value ([5]; 5, 2.5, 1.25 mg/culture, additional 24 hours in fresh medium)?
A: no apparent difference in the growth or general appearance

Q: And the “tiny areas under the skin” value ([6]; Patient A, about two weeks after third infusion 3.4 cc)?
A: disappeared in about a day

Q: What about the duration of vesicles ([6]; Patient A, after first infusion) of the same compound?
A: disappeared in two to three days without pain

Q: And the duration of spots ([6]; Patient A, after third infusion)?
A: 24 h

Q: What about the “recurrence of lesions or pain” value ([6]; Patient A, eighteen months after initial exam) of the same compound?
A: no further lesions or pain

Q: What about the sciatic pain ([6]; Patient A, first infusion 2.8 cc of 100 mg/cc) of the same compound?
A: cessation of sciatic pain

Q: What about the sciatic nerve pain [6, 8] of the same compound?
A: the sciatic nerve pain disappeared during the infusion

Q: And the itching and tingling ([6]; Patient D)?
A: itching and tingling disappeared

Q: What about the lesions ([6]; Patient D, two days later) of the same compound?
A: all lesions were improving

Q: And the lesions ([6]; Patient E, 5 days after third infusion 5 cc)?
A: all lesions had cleared up

Q: And the prodome and lesions ([6]; Patient E, after first infusion)?
A: massive prodome with large weeping lesions

Q: What about the “pinpoint lesions breaking out” value ([6]; Patient E, after third infusion) of the same compound?
A: 5-6 pinpoint lesions

Q: And the prodome and lesions ([6]; Patient E, next day after second infusion)?
A: no prodome and no lesions

Q: And the breakout ([6]; Patient E, second day after second infusion)?
A: another breakout was occurring

Q: What about the lesions ([6]; Patient E, two days after first infusion) of the same compound?
A: the lesions had started to crust

Q: What about the general condition ([6]; Patient F, about 3 weeks later) of the same compound?
A: completely cleared up

Q: And the lesion ([6]; Patient F, next day, 3.8 cc)?
A: improved

Q: And the new lesions ([6]; Patient F, nine days after second infusion)?
A: on the other side lesions had developed

Q: And the “duration of subsequent lesions” value ([6]; Patient F, subsequent follow up)?
A: 12 days and 7 days

Q: What about the crusting of lesions ([6]; Patient G, 4.3 cc) of the same compound?
A: never crusted

Q: And the psoriasis ([6]; Patient G, 4.3 cc)?
A: psoriasis improved

Q: And the “time to disappearance of lesions” value ([6]; Patient G, 4.3 cc)?
A: ≤ 48 h

Q: What about the lesions ([6]; Patient G, next day, 4.3 cc) of the same compound?
A: the lesions improving

Q: And the setback ([6]; Patient H, 6 days later)?
A: setback 6 days later when the condition became a visual attack

Q: What about the improvement ([6]; Patient H, following day, 4.6 cc (6.0 mg/kg)) of the same compound?
A: striking improvement

Q: What about the further problems ([6]; Patient H, six months after treatment, besides 2 minor incidents of red spots and some aura) of the same compound?
A: no further problems

Q: And the incidents since treatment ([6]; Patient J, 12 months later, ointment applied)?
A: very few incidents since treatment

Q: What about the new vesicles [6, 9] of the same compound?
A: 2 vesicles

Q: What about the tingling and redness [6, 9] of the same compound?
A: the tingling and redness had gone

Q: What about the duration of lesion ([6]; Patient J, later attack, 1% TEAC ointment topical) of the same compound?
A: 3 days

Q: And the lesions ([6]; Patient J, three days later, 1% TEAC ointment topical)?
A: all the lesions had dried up

Q: And the lesions [6, 10]?
A: the lesions were drying

Q: And the pain [6, 10]?
A: the pain had disappeared

Q: And the duration of attacks [6, 11]?
A: 2 to 3 days

Q: What about the severity of attacks [6, 11] of the same compound?
A: milder severity

Q: What about the expected attack ([6]; Patient K, six weeks after second infusion 3.4 cc) of the same compound?
A: the attack had not occurred

Q: What about the oral lesion resolution ([7]; Patient B, 3 days after first infusion) of the same compound?
A: resolution occurring in a shorter than usual time

Q: And the severity of attack ([7]; Patient B, about a month after second treatment)?
A: the attack was never serious and that no lesion appeared

Q: And the attacks ([7]; Patient B, about a month later)?
A: no more attacks

Q: And the aura and lesion ([7]; Patient B, day after second 3.7 cc)?
A: absence of an aura and no occurrence of the expected lesion except for a very small lesion

Q: What about the “duration of penile lesions” value [7, 12] of the same compound?
A: 8 days

Q: And the value of treatment [7, 12]?
A: the last treatment appeared of no value

Q: And the recurrences [7, 13]?
A: recurrences were not eliminated

Q: What about the “time to disappearance of penile lesion” value [7, 13] of the same compound?
A: 2 to 3 days

Q: What about the fever blisters ([7]; Patient C) of the same compound?
A: cleared right away

Q: And the labial lesions ([7]; Patient C)?
A: two attacks of labial lesions cleared rapidly

Q: What about the forehead lesion ([7]; Patient C, about a month later) of the same compound?
A: crusted relatively quickly

Q: What about the further problems ([7]; Patient C, five and ten months after initial treatment) of the same compound?
A: no further problems

Q: And the lesions ([7]; Patient C, next day, 3.85 cc (5 mg/kg))?
A: markedly improved

Q: What about the infection ([7]; Patient I, first infusion 4.7 cc) of the same compound?
A: all clear

Q: And the further lesions [7, 14]?
A: no further lesions until one developed in the preceding week

Q: And the nocturnal headaches [7, 14]?
A: no further nocturnal headaches
